These are literature values, as cited in US10780172B2, “Docetaxel and human serum albumin complexes” (Zhuhai Beihai Biotech Co., Ltd., priority 2015, dated 2020).

Entries after “also recorded” stand apart in the source; their conditions may differ.

Consider `CC(=O)O[C@@]12CO[C@@H]1C[C@H](O)[C@@]1(C)C(=O)[C@H](O)C3=C(C)[C@@H](OC(=O)[C@H](O)[C@@H](NC(=O)OC(C)(C)C)c4ccccc4)C[C@@](O)([C@@H](OC(=O)c4ccccc4)[C@H]21)C3(C)C` [Docetaxel], for which the water solubility result is “practically insoluble in water; also recorded: very poor water solubility”. Besides, the protein bound result with plasma proteins (in vitro studies, mainly to al-acid glycoprotein, albumin, and lipoproteins) is on record as “about 94%”. Further, the “in vitro binding to plasma proteins” value with plasma proteins (three cancer patients) is “approximately 97%”. The “potency relative to paclitaxel in inhibiting microtubule depolymerization” value in the data set on microtubule is listed as “about twice as potent as paclitaxel”.
